Experiments:
[1] = Thickness of lipid membrane from SEM observation image; type: physicochemical; settings: lipid supported on fiber sheet base (hemostatic materials E1 to E4), SEM ×5,000
Description: The thickness of the lipid membrane is preferably 10 to 1,000 nm, more preferably 30 to 500 nm, and still more preferably 60 to 240 nm. The method of measuring the lipid membrane is as follows. The lipid membrane is observed with a scanning electron microscope (SEM). The thickness of five points optionally selected in the SEM observation image is measured, and the mean is regarded as the thickness of the lipid membrane.
An SEM observation image (×1,000) of the base complex before supporting a lipid is shown in FIG. 5, and SEM observation images (×1,000) of the hemostatic materials E1 to E4 are shown in FIGS. 6 to 9, respectively.

guinea pig-derived PRP = assay: Evaluation of platelet aggregation capacity of hemostatic material (in vitro), protein assay of attached platelets; type: cell-based; settings: lipid supported on the base part in place of DHSG, Asp-DHSG, Glu-DHSG and AG-DHSG
Description: From the hemostatic materials D1, D2, D3 and D4, a base part (fiber sheet part) supporting DHSG, Asp-DHSG, Glu-DHSG and AG-DHSG, respectively, was taken out. To a 12-well plate, the base part (fiber sheet part) that was taken out and 1 mL of guinea pig-derived PRP (2.0×10^5/μL) prepared by the abovementioned method were added. Thereafter, ADP ([…], 100 μL) that activates platelets was added, and after allowing to stand at room temperature for 5 minutes, the mixture was washed with 1 mL of DPBS twice. Thereafter, to dissolve platelets attached to the base part (fiber sheet part), 500 μL of 0.5% Triton X was added, followed by allowing to stand at room temperature for 1 hour to obtain a platelet lysate. To a 96-well plate, […] of the platelet lysate prepared by the abovementioned method and 150 μL of PIERCE (trademark) 660 nm Protein Assay Kit were added, followed by allowing to stand for 5 minutes. By measuring absorbance at 660 nm using a microplate reader, proteins were quantitatively determined, and the determination results were used as an index of the count of platelets which were not washed away and were attached to the fiber sheet. The results in FIG. 4 are relative values when the platelet count in using the hemostatic material D1 is regarded as 1. […]

Structure (SMILES) | Thickness of the lipid membrane [1] [nm] | Platelets detected on the base part (fiber sheet part) as a result of washing (guinea pig-derived PRP)
CCCCCCCCCCCCCCCCOC(=O)CCC(NC(=O)CCC(=O)NC(CCC(=O)NC(CC(=O)O)C(=O)O)C(=O)NC(CC(=O)O)C(=O)O)C(=O)OCCCCCCCCCCCCCCCC (centres unmarked) [AG-DHSG] | 124 | 
CCCCCCCCCCCCCCCCOC(=O)CCC(NC(=O)CCC(=O)NC(CC(=O)O)C(=O)O)C(=O)OCCCCCCCCCCCCCCCC (centres unmarked) [Asp-DHSG] | 153 | 
CCCCCCCCCCCCCCCC(=O)OC[C@H](COP(=O)([O-])OCC[N+](C)(C)C)OC(=O)CCCCCCCCCCCCCCC [DPPC, 1,2-dipalmitoyl-sn-glycero-3-phosphatidylcholine] |  | no platelets were detected

More lines, main results first:

Thickness of the lipid membrane [1] [nm] | Structure (SMILES) | Platelets detected on the base part (fiber sheet part) as a result of washing (guinea pig-derived PRP)
187 | CCCCCCCCCCCCCCCCOC(=O)CCC(NC(=O)CCC(=O)NC(CCC(=O)O)C(=O)O)C(=O)OCCCCCCCCCCCCCCCC (centres unmarked) [Glu-DHSG] | 
131 | CCCCCCCCCCCCCCCCOC(=O)CCC(NC(=O)CCC(=O)O)C(=O)OCCCCCCCCCCCCCCCC [DHSG, 1,5-Dihexadecyl-N-Succinyl-L-Glutamate, reference compound] | 

Source: patent publication US12325677B2, “Carboxylic acid-type lipid, and lipid particle and lipid membrane each comprising carboxylic acid-type lipid” (Toray Industries, Inc., priority 2018, dated 2025)
